Assay results reported in US11731980B1, “Furo[3,4-b]quinolone compounds as antibacterial agents” (KING FAISAL UNIVERSITY, priority 2023, dated 2023).
pIC50: −log10 of the molar value. ≈ marks a conversion by molar mass, not a printed value. Read-outs that look alike come from different tables or passages of the source.

Columns and labels:
[1] = tested on: Enterococcus faecium ATCC 51559 (VRE resistant); assay: In vitro antibacterial activity, CLSI M07-A10 dilution (MIC); assay type: cell-based
[2] = tested on: Enterococcus faecium ATCC 35667; assay: as above; assay type: cell-based; details: ATCC35667
[3] = tested on: Escherichia coli MTCC 443; assay: as above; assay type: cell-based; details: MTCC443
[4] = tested on: Bacillus subtilis MTCC 441; assay: as above; assay type: cell-based; details: MTCC441
[5] = tested on: Pseudomonas aeruginosa MTCC 741; assay: as above; assay type: cell-based; details: MTCC741
[6] = tested on: Staphylococcus aureus ATCC BAA-1556 (MERSA resistant); assay: as above; assay type: cell-based; details: ATCCBAA1556
[7] = tested on: Klebsiella pneumonia MTCC 618; assay: as above; assay type: cell-based; details: Klebsiella pneumoniae, MTCC618
[8] = tested on: Staphylococcus epidermidis; assay: as above; assay type: cell-based
[9] = tested on: Staphylococcus aureus ATCC 29213; assay: as above; assay type: cell-based; details: ATCC29213
[10] = tested on: Mycobacterium tuberculosis H37Rv strain; assay: Anti-tubercular alamar blue microplate assay (MIC); assay type: cell-based; details: 168 h, M. tuberculosis H37Rv, seven days at 37° C., read-out: anti-mycobacterial activity (MIC)
DNA gyrase from E. coli = target: T1, DNA gyrase from E. coli (Escherichia coli, UniProt P0AES4+P0AES6); assay: Inhibitory activity on E. coli DNA gyrase (Inspiralis assay); assay type: biochemical
T1 construct: purchased Inspiralis
Procedure: Inhibitory potencies were investigated utilizing the Inspiralis assay on streptavidin-coated 96-well microtiter plates. First, the plates were rehydrated with buffer (20 mM Tris-HCl with pH 7.6, 0.01% w/v BSA, 0.05% v/v Tween 20, 137 mM NaCl) and the biotinylated oligonucleotide was then immobilized. After washing off the unbound oligonucleotide, the enzyme test was performed. The reaction volume of 30 μL in buffer (35 mM Tris×HCl with pH 7.5, 4 mM MgCl2, 24 mM KCl, 2 mM DTT, 1.8 mM spermidine, 1 mM ATP, 6.5% w/v glycerol, 0.1 mg/mL albumin) contained 1.5 U of DNA gyrase from E. coli, 0.75 μg of relaxed pNO1 plasmid, and 3 μL solution of the inhibitor in 10% DMSO and 0.008% Tween 20. Reaction solutions were incubated at 37° C. for 30 min. After that, the TF buffer (50 mM NaOAc with pH 5.0, 50 mM NaCl and 50 mM MgCl2) was added to terminate the enzymatic reaction. After additional incubation for 30 min at rt, during which biotinoligonucleotide-plasmid triplex was formed, the unbound plasmid was washed off using TF buffer and SybrGOLD in T10 buffer (10 mM Tris HCl with pH 8.0 and 1 mM EDTA) was added. The fluorescence was measured with a microplate reader (BioTek Synergy H4, excitation: 485 nm, emission: 535 nm). Initial screening was done at 100 or 10 μM concentration of inhibitors. […] GraphPad Prism software was used to calculate the IC50 values. […]

T1 sequence (P0AES4 whole entry, one chain of several): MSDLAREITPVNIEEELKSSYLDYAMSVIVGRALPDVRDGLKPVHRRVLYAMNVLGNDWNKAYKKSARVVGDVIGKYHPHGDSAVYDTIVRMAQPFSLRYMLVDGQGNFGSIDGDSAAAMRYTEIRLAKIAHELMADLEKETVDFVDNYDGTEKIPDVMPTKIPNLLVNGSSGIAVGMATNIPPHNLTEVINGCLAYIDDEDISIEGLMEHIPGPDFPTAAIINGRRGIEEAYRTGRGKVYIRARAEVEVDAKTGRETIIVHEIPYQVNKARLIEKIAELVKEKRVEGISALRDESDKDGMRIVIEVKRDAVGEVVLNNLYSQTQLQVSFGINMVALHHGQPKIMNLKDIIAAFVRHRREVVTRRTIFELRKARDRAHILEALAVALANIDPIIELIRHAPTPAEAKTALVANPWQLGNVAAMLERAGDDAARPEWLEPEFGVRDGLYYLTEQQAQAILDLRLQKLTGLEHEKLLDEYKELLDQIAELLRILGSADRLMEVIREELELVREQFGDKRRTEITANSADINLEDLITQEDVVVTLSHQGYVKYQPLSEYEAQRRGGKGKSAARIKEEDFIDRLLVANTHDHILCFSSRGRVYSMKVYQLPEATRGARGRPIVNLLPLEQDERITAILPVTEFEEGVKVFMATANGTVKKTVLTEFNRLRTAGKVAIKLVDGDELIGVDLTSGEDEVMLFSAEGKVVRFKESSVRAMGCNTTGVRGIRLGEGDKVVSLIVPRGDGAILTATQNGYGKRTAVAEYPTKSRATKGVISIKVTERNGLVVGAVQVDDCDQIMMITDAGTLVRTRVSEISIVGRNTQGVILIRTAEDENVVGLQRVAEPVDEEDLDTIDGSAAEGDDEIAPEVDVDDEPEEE

Q: `CN[C@H](CC(C)C)C(=O)N[C@H]1C(=O)N[C@@H](CC(N)=O)C(=O)N[C@H]2C(=O)N[C@H]3C(=O)N[C@H](C(=O)N[C@H](C(=O)O)c4cc(O)cc(O)c4-c4cc3ccc4O)[C@H](O)c3ccc(c(Cl)c3)Oc3cc2cc(c3O[C@@H]2O[C@H](CO)[C@@H](O)[C@H](O)[C@H]2O[C@H]2C[C@](C)(N)[C@H](O)[C@H](C)O2)Oc2ccc(cc2Cl)[C@H]1O` [Vancomycin, reference compound] was tested. Which MIC ([1]; Enterococcus faecium) did it give?
A: The MIC was over 128 µg/mL.

Q: And the MIC ([2]; Enterococcus faecium)?
A: The MIC was 0.5 µg/mL (≈ 0.345 µM).

Q: And the MIC ([3]; Escherichia coli)?
A: Its MIC is over 128 µg/mL.

Q: What about the MIC ([4]; Bacillus subtilis) of the same compound?
A: Its MIC is 0.5 µg/mL (≈ 0.345 µM).

Q: And the MIC ([5]; Pseudomonas aeruginosa)?
A: Its MIC is over 128 µg/mL.

Q: And the MIC ([6]; Staphylococcus aureus)?
A: Its MIC is 1 µg/mL (≈ 0.69 µM).

Q: And the MIC [7]?
A: The MIC was over 128 µg/mL.

Q: What about the MIC [8] of the same compound?
A: The MIC was 1 µg/mL (≈ 0.69 µM).

Q: And the MIC ([9]; Staphylococcus aureus)?
A: Its MIC is 1 µg/mL (≈ 0.69 µM).

Q: Which MIC ([1]; Enterococcus faecium ATCC 51559 (VRE resistant), read-out: MIC) does the source give for `CCCCCN(C)Cc1cc(-c2c3c(nc4cc(NC(=O)C5CC5)ccc24)COC3=O)ccc1C(=O)O` [Compound 8, 4-(6-(cyclopropanecarboxamido)-1-oxo-1,3-dihydrofuro[3,4-b]quinolin-9-yl)-2-((methyl(pentyl)amino)methyl)benzoic acid] here?
A: The MIC was 16 µg/mL (≈ 31.9 µM).

Q: And the MIC ([2]; Enterococcus faecium ATCC 35667, read-out: MIC)?
A: The MIC was 8 µg/mL (≈ 15.9 µM).

Q: What about the MIC ([3]; Escherichia coli MTCC 443, read-out: MIC) of the same compound?
A: Its MIC is 16 µg/mL (≈ 31.9 µM).

Q: What about the MIC ([4]; Bacillus subtilis MTCC 441, read-out: MIC) of the same compound?
A: The MIC was 8 µg/mL (≈ 15.9 µM).

Q: And the MIC [10]?
A: Its MIC is 4 µg/mL (≈ 7.97 µM).

Q: What about the MIC ([5]; Pseudomonas aeruginosa MTCC 741, read-out: MIC) of the same compound?
A: Its MIC is 8 µg/mL (≈ 15.9 µM).

Q: And the MIC ([6]; Staphylococcus aureus ATCC BAA-1556 (MERSA resistant), read-out: MIC)?
A: The MIC was 16 µg/mL (≈ 31.9 µM).

Q: What about the MIC ([7]; Klebsiella pneumonia MTCC 618, read-out: MIC) of the same compound?
A: The MIC was 8 µg/mL (≈ 15.9 µM).

Q: What about the pIC50 (DNA gyrase from E. coli) of the same compound?
A: The pIC50 was 6.26.

Q: What about the MIC ([8]; read-out: MIC) of the same compound?
A: Its MIC is 16 µg/mL (≈ 31.9 µM).

Q: And the MIC ([9]; Staphylococcus aureus ATCC 29213, read-out: MIC)?
A: The MIC was 16 µg/mL (≈ 31.9 µM).
